Results: patent US10266526B2, “Substituted 1,2,3-triazoles as SMYD inhibitors for treating cancer” (EPIZYME, INC., priority 2014, dated 2019)
pIC50: −log10 of the molar value.

biological target: SMYD2 (Homo sapiens (Human), UniProt Q9NRG4); experiment: SMYD2 biochemical assay (SMYD2 enzyme assay on peptide substrate, 3H-SAM Flashplate); settings: not given
Sequence (Q9NRG4 whole entry): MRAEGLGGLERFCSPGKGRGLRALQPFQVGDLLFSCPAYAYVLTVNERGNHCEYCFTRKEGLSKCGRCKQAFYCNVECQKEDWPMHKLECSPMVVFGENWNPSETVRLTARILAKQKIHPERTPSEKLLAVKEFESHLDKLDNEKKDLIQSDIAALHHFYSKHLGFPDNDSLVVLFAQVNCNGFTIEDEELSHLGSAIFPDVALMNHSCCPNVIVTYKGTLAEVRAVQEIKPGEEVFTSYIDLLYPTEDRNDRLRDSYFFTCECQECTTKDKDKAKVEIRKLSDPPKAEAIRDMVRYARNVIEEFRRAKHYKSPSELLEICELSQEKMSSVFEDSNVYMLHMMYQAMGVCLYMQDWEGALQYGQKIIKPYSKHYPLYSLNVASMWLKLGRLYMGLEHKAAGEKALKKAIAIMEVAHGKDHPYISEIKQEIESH

Compound	pIC50
C[C@H](c1cccc(OCCO)c1Cl)N1CC(NC(=O)c2cn(C3CC3)nn2)C1 (single isomer, unassigned) [compound 832]	4.85

same assay, conditions: read-out: SMYD2 Biochem IC50; IC50 values are an average of n = 1 to n = 50

Compound	pIC50
Cc1ccc(Cn2cc(CN3CC(NC(=O)c4cn(C5CC5)nn4)C3)cn2)cc1 [compound 993, 1-cyclopropyl-N-(1-((1-(4-methylbenzyl)-1H-pyrazol-4-yl)methyl)azetidin-3-yl)-1H-1,2,3-triazole-4-carboxamide]	7.80
CCC(c1ccc(F)cc1)N1CC(NC(=O)c2cn(C3CC3)nn2)C1 (centres unmarked) [compound 694, 1-cyclopropyl-N-{1-[1-(4-fluorophenyl)propyl]azetidin-3-yl}-1H-1,2,3-triazole-4-carboxamide]	6.10
COCCn1cc(CN2CC(NC(=O)c3cn(C4CC4)nn3)C2)cn1 [compound 717, 1-cyclopropyl-N-(1-{[1-(2-methoxyethyl)-1H-pyrazol-4-yl]methyl}azetidin-3-yl)-1H-1,2,3-triazole-4-carboxamide]	5.51
COc1ccc2c(c1Cl)CCC2N1CC(NC(=O)c2cn(C3CC3)nn2)C1 (centres unmarked) [compound 713, N-[1-(4-chloro-5-methoxy-2,3-dihydro-1H-inden-1-yl)azetidin-3-yl]-1-cyclopropyl-1H-1,2,3-triazole-4-carboxamide]	4.89
COc1cnc(C(C)N2CC(NC(=O)c3cn(C4CC4)nn3)C2)nc1 (centres unmarked) [compound 865, 1-cyclopropyl-N-{1-[1-(5-methoxypyrimidin-2-yl)ethyl]azetidin-3-yl}-1H-1,2,3-triazole-4-carboxamide]	5.79
O=C(NC1CN(Cc2cnn(Cc3cscn3)c2)C1)c1cn(C2CC2)nn1 [compound 945, 1-cyclopropyl-N-(1-((1-(thiazol-4-ylmethyl)-1H-pyrazol-4-yl)methyl)azetidin-3-yl)-1H-1,2,3-triazole-4-carboxamide]	5.92
O=C(NC1CN(Cc2cnn(CC3CC3)c2)C1)c1cn(C2CC2)nn1 [compound 1006, 1-cyclopropyl-N-(1-((1-(cyclopropylmethyl)-1H-pyrazol-4-yl)methyl)azetidin-3-yl)-1H-1,2,3-triazole-4-carboxamide]	5.77
O=C(NC1CN(Cc2cnn(CC3CCCCC3)c2)C1)c1cn(C2CC2)nn1 [compound 948, N-(1-((1-(cyclohexylmethyl)-1H-pyrazol-4-yl)methyl)azetidin-3-yl)-1-cyclopropyl-1H-1,2,3-triazole-4-carboxamide]	6.44
O=C(NC1CN(Cc2ccc(OCc3ccncc3)cc2)C1)c1cn(C2CC2)nn1 [compound 828, 1-cyclopropyl-N-(1-{[4-(pyridin-4-ylmethoxy)phenyl]methyl}azetidin-3-yl)-1H-1,2,3-triazole-4-carboxamide]	5.99
O=C(NC1CN(Cc2ccccc2)C1)c1cc(C2CC2)cnn1 [compound 651, N-(1-benzylazetidin-3-yl)-5-cyclopropylpyridazine-3-carboxamide]	6.27
O=C(NC1CN(Cc2cnn(Cc3ccc(Cl)cc3)c2)C1)c1nc(C2CC2)c[nH]1 [compound 927, N-(1-((1-(4-chlorobenzyl)-1H-pyrazol-4-yl)methyl)azetidin-3-yl)-4-cyclopropyl-1H-imidazole-2-carboxamide]	7.96
CC(c1cc(Cl)ccc1OC(F)F)N1CC(NC(=O)c2cn(C3CC3)nn2)C1 (centres unmarked) [compound 970, N-(1-(1-(5-chloro-2-(difluoromethoxy)phenyl)ethyl)azetidin-3-yl)-1-cyclopropyl-1H-1,2,3-triazole-4-carboxamide]	5.29
CC(C)(c1ccc(OCc2ccccc2)cc1)N1CC(NC(=O)c2cn(C3CC3)nn2)C1 [compound 980, N-(1-(2-(4-(benzyloxy)phenyl)propan-2-yl)azetidin-3-yl)-1-cyclopropyl-1H-1,2,3-triazole-4-carboxamide]	6.00
COc1ccccc1[C@@H](C)N1CC(NC(=O)c2cc(C3CC3)cnn2)C1 [compound 842, 5-cyclopropyl-N-{1-[(1R)-1-(2-methoxyphenyl)ethyl]azetidin-3-yl}pyridazine-3-carboxamide]	6.72
CC(c1ccc(OCCN(C)C)cc1)N1CC(NC(=O)c2cn(C3CC3)nn2)C1 (centres unmarked) [compound 857, 1-cyclopropyl-N-[1-(1-{4-[2-(dimethylamino)ethoxy]phenyl}ethyl)azetidin-3-yl]-1H-1,2,3-triazole-4-carboxamide]	5.70
C[C@H](c1ccccc1)N1CC(NC(=O)c2ncc(C3CC3)[nH]2)C1 [compound 915, 5-cyclopropyl-N-{1-[(1R)-1-phenylethyl]azetidin-3-yl}-1H-imidazole-2-carboxamide]	< 4.30
O=C(NC1CN(C2(c3ccccc3)CC2)C1)c1cn(C2CC2)nn1 [compound 755, 1-cyclopropyl-N-[1-(1-phenylcyclopropyl)azetidin-3-yl]-1H-1,2,3-triazole-4-carboxamide]	4.52
COc1cc(C(C)N2CC(NC(=O)c3cn(C4CC4)nn3)C2)ccc1F (centres unmarked) [compound 732, 1-cyclopropyl-N-{1-[1-(4-fluoro-3-methoxyphenyl)ethyl]azetidin-3-yl}-1H-1,2,3-triazole-4-carboxamide]	5.59
CC(=O)Nc1cccc(C(C)N2CC(NC(=O)c3cn(C4CC4)nn3)C2)c1 (centres unmarked) [compound 783, 1-cyclopropyl-N-{1-[1-(3-acetamidophenyl)ethyl]azetidin-3-yl}-1H-1,2,3-triazole-4-carboxamide]	5.50

Compound	pIC50
O=C(NC1CN(Cc2cnn(CC3CCOC3)c2)C1)c1cn(C2CC2)nn1 (centres unmarked) [compound 950, 1-cyclopropyl-N-(1-((1-((tetrahydrofuran-3-yl)methyl)-1H-pyrazol-4-yl)methyl)azetidin-3-yl)-1H-1,2,3-triazole-4-carboxamide]	5.70
COc1ccc(C(C)N2CC(NC(=O)c3cn(C4CC4)nn3)C2)cc1 (centres unmarked) [compound 821, 1-cyclopropyl-N-{1-[1-(4-methoxyphenyl)ethyl]azetidin-3-yl}-1H-1,2,3-triazole-4-carboxamide]	6.11
O=C(NC1CN(Cc2cn[nH]c2)C1)c1cn(C2CC2)nn1 [compound 940, N-(1-((1H-pyrazol-4-yl)methyl)azetidin-3-yl)-1-cyclopropyl-1H-1,2,3-triazole-4-carboxamide]	5.11
COCCOc1cccc(C(C)N2CC(NC(=O)c3cn(C4CC4)nn3)C2)c1 (centres unmarked) [compound 702, 1-cyclopropyl-N-(1-{1-[3-(2-methoxyethoxy)phenyl]ethyl}azetidin-3-yl)-1H-1,2,3-triazole-4-carboxamide]	5.45
CC(c1ccc(F)cc1Cl)N1CC(NC(=O)c2cn(C3CC3)nn2)C1 (centres unmarked) [compound 710, N-{1-[1-(2-chloro-4-fluorophenyl)ethyl]azetidin-3-yl}-1-cyclopropyl-1H-1,2,3-triazole-4-carboxamide]	6.47
O=C(NC1CN(Cc2cnn(Cc3ccccc3)c2)C1)c1cc(C2CC2)cnn1 [compound 933, N-(1-((1-benzyl-1H-pyrazol-4-yl)methyl)azetidin-3-yl)-5-cyclopropylpyridazine-3-carboxamide]	8.11
CC(c1cnccn1)N1CC(NC(=O)c2cn(C3CC3)nn2)C1 (centres unmarked) [compound 745, 1-cyclopropyl-N-{1-[1-(pyrazin-2-yl)ethyl]azetidin-3-yl}-1H-1,2,3-triazole-4-carboxamide]	5.13
Cn1cnc(CN2CC(NC(=O)c3cc(C4CC4)cnn3)C2)c1Cl [compound 648, N-{1-[(5-chloro-1-methyl-1H-imidazol-4-yl)methyl]azetidin-3-yl}-5-cyclopropylpyridazine-3-carboxamide]	5.13
O=C(NC1CN(Cc2cnn(Cc3ccccc3)c2)C1)c1nnc(C2CC2)s1 [compound 1007, N-(1-((1-benzyl-1H-pyrazol-4-yl)methyl)azetidin-3-yl)-5-cyclopropyl-1,3,4-thiadiazole-2-carboxamide]	7.14
COc1c(CN)cccc1CN1CC(NC(=O)c2cn(C3CC3)nn2)C1 [compound 794, N-(1-{[3-(aminomethyl)-2-methoxyphenyl]methyl}azetidin-3-yl)-1-cyclopropyl-1H-1,2,3-triazole-4-carboxamide]	4.49
COCCN1CC(NC(=O)c2cn(C3CC3)nn2)C1 [compound 667, 1-cyclopropyl-N-[1-(2-methoxyethyl)azetidin-3-yl]-1H-1,2,3-triazole-4-carboxamide]	5.61
O=C(NC1CN(Cc2ccc(C(O)Cc3ccccc3)cc2)C1)c1cn(C2CC2)nn1 (centres unmarked) [compound 983, 1-cyclopropyl-N-(1-(4-(1-hydroxy-2-phenylethyl)benzyl)azetidin-3-yl)-1H-1,2,3-triazole-4-carboxamide]	5.86
C[C@@H](c1ccccc1)N1CC(NC(=O)c2cn(C3CC3)nn2)C1 [compound 709, 1-cyclopropyl-N-{1-[(1S)-1-phenylethyl]azetidin-3-yl}-1H-1,2,3-triazole-4-carboxamide]	6.42
CC(c1cccc(OCCN(C)C)c1Cl)N1CC(NC(=O)c2cn(C3CC3)nn2)C1 (centres unmarked) [compound 977, N-(1-(1-(2-chloro-3-(2-(dimethylamino)ethoxy)phenyl)ethyl)azetidin-3-yl)-1-cyclopropyl-1H-1,2,3-triazole-4-carboxamide]	5.12
CC(c1ccc(OCCN(C)C)cc1)N1CC(NC(=O)c2cn(C3CC3)nn2)C1 (centres unmarked) [compound 959, 1-cyclopropyl-N-(1-(1-(4-(2-(dimethylamino)ethoxy)phenyl)ethyl)azetidin-3-yl)-1H-1,2,3-triazole-4-carboxamide]	5.70
CNCCOc1cccc(C(C)N2CC(NC(=O)c3cn(C4CC4)nn3)C2)c1 (centres unmarked) [compound 705, 1-cyclopropyl-N-[1-(1-{3-[2-(methylamino)ethoxy]phenyl}ethyl)azetidin-3-yl]-1H-1,2,3-triazole-4-carboxamide]	5.69
O=C(NC1CN(Cc2ccc(OCCCO)cc2)C1)c1cn(C2CC2)nn1 [compound 823, 1-cyclopropyl-N-(1-{[4-(3-hydroxypropoxy)phenyl]methyl}azetidin-3-yl)-1H-1,2,3-triazole-4-carboxamide]	5.49
CC(c1ccc(Oc2ccccc2)cc1)N1CC(NC(=O)c2cn(C3CC3)nn2)C1 (centres unmarked) [compound 739, 1-cyclopropyl-N-{1-[1-(4-phenoxyphenyl)ethyl]azetidin-3-yl}-1H-1,2,3-triazole-4-carboxamide]	5.97
